In patent US20050288299A1, “Azaindole derivatives as inhibitors of p38 kinase” (priority 2002, published 2005):
pIC50: −log10 of the molar value.

Target: p38α kinase (Homo sapiens, UniProt Q16539)
Assay: p38α Flash Plate Assay (p38 kinase inhibition)
Format: biochemical
Conditions: in vitro; 150 μM ATP, 0.05 mM biotinylated peptide substrate, 5 nM enzyme, 60 minute incubation at 30° Celsius; read-out: P38 α-FLASHPLATE IC50
Protocol: Assay for p38 Kinase Inhibition—p38α Flash Plate Assay
The compounds to be tested were solubilized in DMSO and diluted with water to the desired concentrations. The p38 kinase was diluted to 20 nM into a buffer containing 20 mM MOPS, pH 7.0, 25 mM beta-glycerol phosphate, 2 mg/ml gelatin, 0.5 mM EGTA (ethylene-bis-(oxyethylenenitrilo)-tetraacetic acid), and 4 mM dithiothreitol (DTT).
The reaction was carried out by mixing 20 μl test compound with 10 μl of a substrate cocktail containing 0.2 mM biotinylated peptide substrate and 0.6 mM ATP (+100 μCi/ml gamma-^33P-ATP) in a 5× assay buffer. The reaction was initiated by the addition of 10 μl of p38 kinase. Final assay conditions were 25 mM MOPS, pH 7.0, 26.25 mM beta-glycerol phosphate, 80 mM KCl, 22 mM MgCl2, 3 mM MgSO4, 1 mg/ml gelatin, 0.625 mM EGTA, 1 mM DTT, 0.05 mM peptide substrate, 150 μM ATP, and 5 nM enzyme. After a 60 minute incubation at 30° Celsius, the reaction was stopped by the addition of 10 μl per reaction of 0.25 M phosphoric acid.
A portion of the reaction was transferred to a streptavidin-coated Flash Plate (Perkin Elmer); the Flash Plate was incubated for 60 minutes at 30° Celsius and then washed 3× with PBS containing 0.01% Tween-20.
Counts incorporated are determined on a scintillation counter. Relative enzyme activity was calculated by subtracting background counts (counts measured in the absence of enzyme) from each result, and comparing the resulting counts to those obtained in the absence of inhibitor. IC50 values were determined with curve-fitting plots available with common software packages. The IC50 was expressed as the concentration of compound which inhibited the enzyme activity by 50%.

Sequence of p38α kinase (Q16539 whole entry): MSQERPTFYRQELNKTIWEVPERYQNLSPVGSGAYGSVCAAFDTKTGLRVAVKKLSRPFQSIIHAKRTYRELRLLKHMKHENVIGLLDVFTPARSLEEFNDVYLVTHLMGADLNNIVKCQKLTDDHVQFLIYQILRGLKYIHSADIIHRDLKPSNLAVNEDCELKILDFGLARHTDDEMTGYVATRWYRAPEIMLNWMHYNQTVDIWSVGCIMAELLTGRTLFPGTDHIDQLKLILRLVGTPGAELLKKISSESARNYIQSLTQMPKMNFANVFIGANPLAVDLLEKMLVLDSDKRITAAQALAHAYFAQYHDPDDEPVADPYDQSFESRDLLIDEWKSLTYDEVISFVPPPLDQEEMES

pIC50: 7.01
Compound: CNC(=O)C(=O)c1c[nH]c2cc(OC)c(C(=O)N3C[C@H](C)N(Cc4ccc(F)cc4)C[C@H]3C)nc12 [compound 76]
